Results on eleven molecules are retold here after ChEMBL document CHEMBL1201862, “PubChem BioAssay data set” (2004).

Molecules are shown by their SMILES.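 Tested at 5 concentrations; 48 h exposure; 96-well plates; endpoints linearly interpolated, else capped at highest concentration. The concentration for 50% growth inhibition is given as GI50.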 Active and inactive are the calls of the source. No stated cut-off is given here; in the data, active = GI50 up to about 1.1 µM and inactive = higher.

Among the test systems are SN12C; HT-29; OVCAR-8; SNB-19; HCT-116; ACHN; MCF7; NCI/ADR-RES; MOLT-4; UACC-62; MDA-MB-435; RXF 393; COLO 205; NCI-H460; UACC-257; OVCAR-3; NCI-H23; M14; PC-3; A498.
Test in all cases: growth of human tumour cells (NCI), 48 h

For `CC(C)(C)n1c(=O)n2n(c1=O)Cc1cccc3cccc(c13)C2`, the GI50 in the assay on SN12C is 19.3 µM (inactive); with HT-29, 16.7 µM (inactive); in the assay with OVCAR-8, 17.8 µM (inactive); in the assay on SNB-19, 25.6 µM (inactive); in the assay on HCT-116, 15.1 µM (inactive); in the assay with ACHN, 20.6 µM (inactive). Further, the GI50 was 22.8 µM (inactive) in the assay on MCF7; 14.4 µM (inactive) with NCI/ADR-RES; 14.8 µM (inactive) in the assay with MOLT-4; 24 µM (inactive) with UACC-62; 23.7 µM (inactive) in the assay with MDA-MB-435; 13.9 µM (inactive) with RXF 393. The GI50 with COLO 205 was 29.5 µM (inactive); in the assay with NCI-H460, 10.7 µM (inactive); with UACC-257, 22.6 µM (inactive); in the assay with OVCAR-3 it was 15.4 µM (inactive); in the assay on NCI-H23, 25.6 µM (inactive); in the assay with M14 it was 18.4 µM (inactive). For the same molecule, the GI50 in the assay on PC-3 is 13 µM (inactive).

On to `CC1CCCC2=C1C(c1ccc(Cl)cc1)n1c(s/c(=C\c3ccc(Cl)cc3)c1=O)=N2` (centres undefined), for which the GI50 in the assay on SN12C, with HT-29, in the assay with OVCAR-8, in the assay with SNB-19, in the assay with HCT-116 and with ACHN was > 100 µM (inactive) in each case. Besides, the GI50 in the assay with MCF7, with UACC-62, in the assay on MDA-MB-435, in the assay with RXF 393, in the assay with COLO 205 and in the assay with UACC-257 was > 100 µM (inactive) throughout. The GI50 in the assay on M14, with PC-3 and in the assay with A498 was > 100 µM (inactive) each time.

For the molecule `CO[C@H]1C=C[C@]23c4cc5c(cc4CN(CC2O)[C@@H]3C1)OCO5` (some centres undefined), the GI50 was 3.3 µM (inactive) with SN12C; 2.06 µM (inactive) with HT-29; 3.08 µM (inactive) in the assay with OVCAR-8; 2.17 µM (inactive) in the assay with SNB-19; 1.97 µM (inactive) in the assay with HCT-116; 0.678 µM (active) in the assay on ACHN. Also, the GI50 with NCI/ADR-RES was 4.98 µM (inactive); in the assay with MOLT-4, 0.873 µM (active); with UACC-62, 2.18 µM (inactive); in the assay on MDA-MB-435 it was 2.81 µM (inactive); in the assay on COLO 205 it was 2.58 µM (inactive); in the assay with NCI-H460, 1.53 µM (inactive). In addition, the GI50 in the assay with UACC-257 was 3.15 µM (inactive); with OVCAR-3, 1.9 µM (inactive); with NCI-H23 it was 4.49 µM (inactive); with M14, 3.3 µM (inactive); in the assay on PC-3 it was 2.39 µM (inactive); with A498, 2.06 µM (inactive).

With `Cc1ccc(NC(=O)NC(=O)c2ccc([N+](=O)[O-])cc2[N+](=O)[O-])cc1Oc1ncc(Cl)cn1`, the GI50 with SN12C is 0.578 µM (active); with HT-29, 0.3 µM (active); in the assay with OVCAR-8, 0.468 µM (active); in the assay on SNB-19 it was 0.48 µM (active); in the assay with HCT-116, 0.333 µM (active); in the assay with ACHN it was 1.33 µM (inactive). The GI50 in the assay on MCF7 was 0.164 µM (active); in the assay on MOLT-4, 0.362 µM (active); in the assay on UACC-62, 0.229 µM (active); in the assay on MDA-MB-435, 0.063 µM (active); in the assay on RXF 393 it was 0.175 µM (active); in the assay with COLO 205 it was 0.415 µM (active). Besides, the GI50 in the assay with NCI-H460 is 0.338 µM (active); with UACC-257 it was 0.689 µM (active); in the assay with OVCAR-3, 0.355 µM (active); in the assay on NCI-H23, 0.564 µM (active); in the assay on M14, 0.38 µM (active); in the assay with PC-3 it was 0.117 µM (active). In the assay on A498, the GI50 was 0.5 µM (active).

`COC12OC3(C4OC41)C(C(=O)O[C@H]3CO[Si](C)(C)C(C)(C)C)C2S(=O)(=O)c1ccccc1` (some centres undefined): the GI50 was > 4.65 µM (inactive) in the assay on SN12C; 4.65 µM (inactive) with OVCAR-8; 4.16 µM (inactive) with HCT-116; 2.69 µM (inactive) with ACHN; 4.1 µM (inactive) with MCF7; > 100 µM (inactive) with NCI/ADR-RES. For the same molecule, the GI50 was 2.25 µM (inactive) in the assay on MOLT-4; > 4.65 µM (inactive) in the assay with UACC-62; > 4.65 µM (inactive) with MDA-MB-435; < 0.01 µM (active) in the assay with RXF 393; 21.9 µM (inactive) in the assay on COLO 205; > 62.1 µM (inactive) in the assay on NCI-H460. For the same molecule, the GI50 is > 4.65 µM (inactive) in the assay on UACC-257, > 100 µM (inactive) in the assay with OVCAR-3, > 100 µM (inactive) with NCI-H23 and > 4.65 µM (inactive) in the assay on PC-3.

As to `N#Cc1c(-c2cccc(Cl)c2)cc(-c2ccc(Cl)cc2)nc1N`, the GI50 with SN12C was 17.3 µM (inactive); in the assay on HT-29, 24.3 µM (inactive); with OVCAR-8, 24.6 µM (inactive); in the assay with SNB-19, 11.9 µM (inactive); in the assay on HCT-116 it was 16.5 µM (inactive); with ACHN, 17.7 µM (inactive). Further, the GI50 in the assay on MCF7 is 16.3 µM (inactive); in the assay with NCI/ADR-RES it was 22 µM (inactive); with MOLT-4, 19 µM (inactive); in the assay on UACC-62, 16.5 µM (inactive); in the assay on MDA-MB-435, 19.1 µM (inactive); in the assay with RXF 393, 16.7 µM (inactive). In addition, the GI50 was 14.6 µM (inactive) with COLO 205; 18.8 µM (inactive) in the assay on NCI-H460; 15.3 µM (inactive) in the assay on UACC-257; 23.7 µM (inactive) in the assay with OVCAR-3; 17.5 µM (inactive) with NCI-H23; 19.1 µM (inactive) with M14. The GI50 in the assay on PC-3 is 17.2 µM (inactive).

Turning to `Nc1n[n+]([O-])c2cnccc2[n+]1[O-]`, the GI50 in the assay with SN12C was 44.2 µM (inactive); in the assay with HT-29 it was 39.1 µM (inactive); in the assay on OVCAR-8, 31.3 µM (inactive); in the assay with SNB-19 it was > 100 µM (inactive); with HCT-116 it was 32.4 µM (inactive); in the assay on ACHN it was 50.9 µM (inactive). Besides, the GI50 in the assay with MCF7 was > 10 µM (inactive); with NCI/ADR-RES, 78 µM (inactive); in the assay with MOLT-4, 51.8 µM (inactive); in the assay with UACC-62 it was 30.1 µM (inactive); in the assay with MDA-MB-435, 21.4 µM (inactive); with COLO 205, 39.6 µM (inactive). In addition, the GI50 in the assay on NCI-H460 is 34.8 µM (inactive); with UACC-257, 24 µM (inactive); in the assay on OVCAR-3 it was 35.4 µM (inactive); in the assay on NCI-H23, 42.2 µM (inactive); in the assay on M14, 22.3 µM (inactive); in the assay with PC-3, 36.1 µM (inactive).

In the case of `Cn1nc(-c2ccccc2)c2c(-c3ccccc3)c3cc(Cl)ccc3nc21`, the GI50 in the assay with SN12C was > 100 µM (inactive); with HT-29, 49.3 µM (inactive); in the assay on OVCAR-8, > 100 µM (inactive); with SNB-19 it was > 100 µM (inactive); with HCT-116, 41.3 µM (inactive); in the assay on ACHN it was > 100 µM (inactive). Further, the GI50 in the assay with MCF7 was 82 µM (inactive); with MOLT-4, 15.8 µM (inactive); in the assay on UACC-62, > 100 µM (inactive); in the assay on MDA-MB-435, > 100 µM (inactive); with RXF 393 it was > 100 µM (inactive); in the assay on NCI-H460, 75.7 µM (inactive). The GI50 in the assay with UACC-257, in the assay with OVCAR-3, with NCI-H23, in the assay on M14, in the assay with PC-3 and with A498 was > 100 µM (inactive) each time.

For the molecule `c1ccc2c(c1)cc1ccc3cccc4ccc2c1c34`, the GI50 in the assay on SN12C is > 100 µM (inactive); with HT-29 it was > 100 µM (inactive); in the assay with OVCAR-8, > 100 µM (inactive); in the assay on SNB-19, 81.1 µM (inactive); with HCT-116, > 100 µM (inactive); in the assay with ACHN it was > 100 µM (inactive). For the same molecule, the GI50 with MCF7 is 0.134 µM (active); in the assay on NCI/ADR-RES it was > 100 µM (inactive); in the assay on MOLT-4, > 100 µM (inactive); in the assay with UACC-62, 67.9 µM (inactive); in the assay with MDA-MB-435, > 100 µM (inactive); in the assay on RXF 393 it was > 100 µM (inactive). Moreover, the GI50 in the assay with COLO 205, in the assay on NCI-H460, in the assay on UACC-257, in the assay with OVCAR-3, in the assay on NCI-H23 and in the assay on M14 was > 100 µM (inactive) in each case. The GI50 with PC-3 was > 100 µM (inactive).

Regarding `O=C1c2ccccc2C2(c3ccc(F)cc3)NCCN12` (centres undefined), the GI50 with SN12C, in the assay with HT-29, in the assay on OVCAR-8, with SNB-19, in the assay with HCT-116 and with ACHN was > 100 µM (inactive) each time. For the same molecule, the GI50 with MCF7, in the assay on NCI/ADR-RES, in the assay on MOLT-4, with UACC-62, with MDA-MB-435 and with RXF 393 was > 100 µM (inactive) in each case. Moreover, the GI50 with COLO 205, with NCI-H460, in the assay with UACC-257, in the assay with OVCAR-3, with NCI-H23 and with M14 was > 100 µM (inactive) in each case. For the same molecule, the GI50 in the assay with PC-3 was > 100 µM (inactive).

`O=C(NC(=O)c1ccccc1)OC(c1ccccc1)C1CO1` (centres undefined): the GI50 in the assay on SN12C, in the assay on HT-29, in the assay on OVCAR-8, with SNB-19, in the assay with HCT-116 and with ACHN was > 100 µM (inactive) each time. Besides, the GI50 in the assay on MCF7, in the assay with NCI/ADR-RES, in the assay on MOLT-4, with UACC-62, in the assay on MDA-MB-435 and with RXF 393 was > 100 µM (inactive) each time. Besides, the GI50 in the assay with COLO 205, in the assay with NCI-H460, in the assay with UACC-257, in the assay with OVCAR-3, in the assay with NCI-H23 and with M14 was > 100 µM (inactive) each time. In addition, the GI50 with PC-3 was > 100 µM (inactive).
